Laboratory results from the supplement of paper PMC9763283.

Columns and labels:
Test in all cases: area under growth-rate inhibition curve (AUC GRI) (dimensionless (GR-based AUC)); higher = less growth inhibition
Details in all cases: exposure time: 72 h; concentrations: 0.1, 1, 10 uM
BT474-LTR = test system: BT474-LTR
In short: (§1)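 Nuclear counts from Hoechst 33342- or DAPI-stained images were used to estimate the area under the growth-rate inhibition curve, with growth corrected by reference to untreated and DMSO-treated plates and starting plates. The six breast cancer cell line models, comprising two triple-negative lines and parental and drug-combination-resistant HER2+ lines, were treated with compound at 0.1, 1 or 10 µM for 72 h. Data came from 2 biological replicates, using Day 0 and Day 3 plates.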

BT474-P = test system: BT474-P
In short: as §1

MDA-MB-231 = test system: MDA-MB-231
In short: as §1

MDA-MB-468 = test system: MDA-MB-468
In short: as §1

SKBR3-LTR = test system: SKBR3-LTR
In short: as §1

SKBR3-P = test system: SKBR3-P
In short: as §1

Row | SMILES | area under growth-rate inhibition curve (BT474-LTR) | area under growth-rate inhibition curve (BT474-P) | area under growth-rate inhibition curve (MDA-MB-231) | area under growth-rate inhibition curve (MDA-MB-468) | area under growth-rate inhibition curve (SKBR3-LTR) | area under growth-rate inhibition curve (SKBR3-P)
1 | CN(C)CCc1c[nH]c2ccc(C[C@H]3COC(=O)N3)cc12 [Zolmitriptan] | 1.09 | 1.06 | 1.06 | 1.05 | 1.07 | 1.03
2 | CN(C)CCOC(c1ccc(Cl)cc1)c1ccccn1 (stereo unspecified) [carbinoxamine] | 1.04 | 0.999 | 1.04 | 1.04 | 1.06 | 1.03
3 | CN1CC(C(=O)NC2(C)OC3(O)C4CCCN4C(=O)C(Cc4ccccc4)N3C2=O)C=C2c3cccc4[nH]cc(c34)CC21 (stereo unspecified) [ergotamine] | 1.03 | 1.01 | 1.03 | 1 | 1.06 | 1.02
4 | Nc1cc(-c2ccncc2)c[nH]c1=O [inamrinone] | 1.03 | 0.994 | 1.04 | 1.06 | 1.05 | 1.03
5 | CC(C)C1NC(=O)C(CCCCN)NC(=O)C(Cc2c[nH]c3ccccc23)NC(=O)C(Cc2ccc(O)cc2)NC(=O)C(NC(=O)C(N)Cc2ccc3ccccc3c2)CSSCC(C(=O)NC(C(N)=O)C(C)O)NC1=O (stereo unspecified) [lanreotide] | 1 | 1 | 0.986 | 1.02 | 1.01 | 1.01
6 | Nc1cccc2c1CN(C1CCC(=O)NC1=O)C2=O (stereo unspecified) [lenalidomide] | 1.03 | 1.01 | 1.04 | 1.04 | 1.06 | 1.02
7 | CCOC(=O)C1(c2ccccc2)CCN(C)CC1 [meperidine] | 1.04 | 0.992 | 1.04 | 1.04 | 1.06 | 1.02
8 | COc1ccc(OC)c(C(O)C(C)N)c1 (stereo unspecified) [methoxamine] | 1.07 | 1.01 | 1.05 | 1.05 | 1.04 | 1.05
9 | CCc1c(C)[nH]c2c1C(=O)C(CN1CCOCC1)CC2 (stereo unspecified) [molindone] | 1.04 | 1.01 | 1.05 | 1.06 | 1.05 | 1.03
10 | CCN(CC)CCOC(=O)c1ccc(N)cc1.[Cl-].[H+] [procaine] | 1.05 | 1.02 | 1.03 | 1.03 | 1.07 | 1.01
11 | Cc1ccc(/C(=C\CN2CCCC2)c2ccccn2)cc1.Cl [trans-Triprolidine hydrochloride] | 1.05 | 1.03 | 1.03 | 1.03 | 1.05 | 1.03
